Measurements from patent US4431665A, “Acylated laidlomycin derivatives” (priority 1980, dated 1984).
Read-outs that look alike come from different tables or passages of the source.

Assays:
[1] = tested on: rumen microorganisms (mixed microbial population of rumen contents); test: Enhancement of intraruminal propionic acid production, batch culture fermentation of rumen contents; format: cell-based, bovine (rumen-fistulated); settings: 9 h, 39° C.
Method: Enhancement of intraruminal propionic acid production is determined using a batch culture fermentation system. Rumen contents from a rumen-fistulated bovine are mixed with an equal amount of buffer which contains mineral, energy and nitrogen sources required for continued growth and metabolism of the mixed microbial population. Aliquots of this inoculum then are transferred to incubation vessels containing appropriate amounts of sodium laidlomycin (Na L.) (see Example 1A), and L. butyrate (L.C4) (prepared according to the procedure of Example 1A). After 9 hours of incubation at 39° C., concentrations of individual volatile fatty acids in each incubation vessel are determined by gas-liquid chromatography. The net production of each individual volatile fatty acid (acetic [AA], propionic [PA] and butyric [BA]) is calculated as the difference between the concentration after incubation and the concentration before incubation. The molar percentage of propionic acid produced is calculated from the following equation: [formula]
The comparative activities of sodium laidlomycin (Na L.) and the laidlomycin butyrate upon propionic acid and lactic acid production are set forth in Tables 1 and 2 where the concentration is in micrograms per ml (μg/ml).
(§1) The procedure of Example 2 was followed to compare laidlomycin (L.), sodium L. (Na L.), L.-propionate (L.C3), L. butyrate (L.C4), L. isobutyrate (L. isoC4), L. pentanoate (L.C5) and L. hexanoate (L.C6).
(§2) The procedure of Example 2 was followed to compare the activities of L. heptanoate (L. C7), L. octanoate (L. C8), L. decanoate (L. C10) and L. dodecanoate (L. C12) in increasing propionic acid production and inhibiting lactic acid production.
(§3) The procedure of Example 2 was followed to compare the activities of laidlomycin (L.) acetate (L. C2), L. pentanoate (L. C5), L. stearate (L. C18), L. cyclobutylcarboxylate, L. cyclopentylcarboxylate, L. cyclohexylcarboxylate and L. cyclopropylcarboxylate.

[2] = tested on: rumen contents (lactic acid accumulation); test: Inhibition of lactic acid accumulation, second batch culture fermentation of rumen contents with glucose; format: cell-based, bovine (rumen fistulated); settings: 6 h, 39° C.; for Lactic Acid Accumulation (μ mol/ml): Table 8, 0 μg/ml: 40.47; for Lactic Acid Accumulation: Table 6, 0 μg/ml: 36.65; for activity at 1.25 µg/mL / activity at 5 µg/mL / activity at 20 µg/mL / activity at 0.31 µg/mL: Bos taurus
Method: Inhibition of lactic acid accumulation is determined using a second batch culture fermentation system. Rumen contents from a rumen fistulated bovine are mixed with an equal amount of buffer which contains a 150 mM concentration of glucose. Following 6 hours of incubation at 39° C., lactic acid produced in the fermentation is analyzed by a specific enzymatic assay. The concentration of lactic acid in the fermentation broth is quantified by the increase in absorbance of light at […] when nicotinamide adenine dinucleotide is reduced by lactic acid with the aid of lactate dehydrogenase. […]
as §1, §2, §3

[3] = Table 7, 1.25 μg/ml, 0 μg/ml: 36.1
[4] = Table 7, 2.5 μg/ml, 0 μg/ml: 36.1
[5] = Table 7, 5 μg/ml, 0 μg/ml: 36.1
[6] = Table 7, 10 μg/ml, 0 μg/ml: 36.1
[7] = Table 7, 20 μg/ml, 0 μg/ml: 36.1
[8] = Table 7, .313 μg/ml, 0 μg/ml: 36.1
[9] = Table 7, .625 μg/ml, 0 μg/ml: 36.1
[10] = Table 5, 1.25 μg/ml, 0 μg/ml: 35.5
[11] = Table 5, 2.5 μg/ml, 0 μg/ml: 35.5
[12] = Table 5, 5 μg/ml, 0 μg/ml: 35.5
[13] = Table 5, 10 μg/ml, 0 μg/ml: 35.5
[14] = Table 5, 20 μg/ml, 0 μg/ml: 35.5
[15] = Table 5, .31 μg/ml, 0 μg/ml: 35.5
[16] = Table 5, .63 μg/ml, 0 μg/ml: 35.5
[17] = Table 3, 1.25 μg/ml, 0 μg/ml: 28.5
[18] = Table 3, 5 μg/ml, 0 μg/ml: 28.5
[19] = Table 3, 20 μg/ml, 0 μg/ml: 28.5
[20] = Table 3, .31 μg/ml, 0 μg/ml: 28.5

SMILES | % Propionic Acid [1, 3] [%] | % Propionic Acid [1, 4] [%] | % Propionic Acid [1, 5] [%] | % Propionic Acid [1, 6] [%] | % Propionic Acid [1, 7] [%] | % Propionic Acid [1, 8] [%] | % Propionic Acid [1, 9] [%] | Lactic Acid Accumulation (μ mol/ml) ([2]; 1.25 μg/ml) | Lactic Acid Accumulation (μ mol/ml) ([2]; 2.5 μg/ml) | Lactic Acid Accumulation (μ mol/ml) ([2]; 5 μg/ml) | Lactic Acid Accumulation (μ mol/ml) ([2]; 10 μg/ml) | Lactic Acid Accumulation (μ mol/ml) ([2]; 20 μg/ml) | Lactic Acid Accumulation (μ mol/ml) ([2]; .313 μg/ml) | Lactic Acid Accumulation (μ mol/ml) ([2]; .625 μg/ml) | % Propionic Acid [1, 10] [%] | % Propionic Acid [1, 11] [%] | % Propionic Acid [1, 12] [%] | % Propionic Acid [1, 13] [%] | % Propionic Acid [1, 14] [%] | % Propionic Acid [1, 15] [%] | also measured
CCC(=O)OC(C(C)C(=O)O)C(C)C1OC2(CCC(C)(C3CCC(C)(C4OC(C5OC(O)(COC(=O)C6CCC6)C(C)CC5C)CC4C)O3)O2)CC(O)C1C (stereo not shown) [Cyclobutylcarboxylate, laidlomycin cyclobutylcarboxylate] | 50.0 | 52.5 | 51.7 | 51.8 | 51.2 | 47.5 | 47.1 | 3.82 | 4.01 | 4.32 | 4.73 | 4.75 | 23.25 | 8.05 |  |  |  |  |  |  | 
CCCCCCC(=O)OCC1(O)OC(C2CC(C)C(C3(C)CCC(C4(C)CCC5(CC(O)C(C)C(C(C)C(OC(=O)CC)C(C)C(=O)O)O5)O4)O3)O2)C(C)CC1C (stereo not shown) [L. C7, laidlomycin heptanoate] |  |  |  |  |  |  |  |  |  |  |  |  |  |  | 46.2 | 46.9 | 48.4 | 48.1 | 47.2 | 41.4 | % Propionic Acid [1, 16]: 45.3%; Lactic Acid Accumulation ([2]; 1.25 μg/ml): 1.90 µmol/mL; Lactic Acid Accumulation ([2]; 2.5 μg/ml): 1.32 µmol/mL; Lactic Acid Accumulation ([2]; 5 μg/ml): 1.16 µmol/mL; Lactic Acid Accumulation ([2]; 10 μg/ml): 1.46 µmol/mL; Lactic Acid Accumulation ([2]; 20 μg/ml): 1.94 µmol/mL; Lactic Acid Accumulation ([2]; .31 μg/ml): 38.37 µmol/mL; Lactic Acid Accumulation ([2]; .63 μg/ml): 14.12 µmol/mL
CCCCC(=O)OCC1(O)OC(C2CC(C)C(C3(C)CCC(C4(C)CCC5(CC(O)C(C)C(C(C)C(OC(=O)CC)C(C)C(=O)O)O5)O4)O3)O2)C(C)CC1C (stereo not shown) [L. C5, laidlomycin pentanoate] | 48.7 | 50.9 | 49.9 | 51.6 | 51.1 | 45.9 | 48.1 | 4.67 | 3.75 | 4.04 | 4.63 | 5.13 | 24.62 | 11.91 |  |  |  |  |  |  | % Propionic Acid [1, 17]: 33.9%; % Propionic Acid [1, 18]: 36.1%; % Propionic Acid [1, 19]: 39.7%; % Propionic Acid [1, 20]: 30.6%; activity at 1.25 µg/mL ([2]; read-out: Accumulation of Lactic Acid - % of Control, Table 4, 1.25 μg/ml): 54%; activity at 5 µg/mL ([2]; read-out: Accumulation of Lactic Acid - % of Control, Table 4, 5 μg/ml): 13%; activity at 20 µg/mL ([2]; read-out: Accumulation of Lactic Acid - % of Control, Table 4, 20 μg/ml): 11%; activity at 0.31 µg/mL ([2]; read-out: Accumulation of Lactic Acid - % of Control, Table 4, .31 μg/ml): 109%
CCCCCCCCCC(=O)OCC1(O)OC(C2CC(C)C(C3(C)CCC(C4(C)CCC5(CC(O)C(C)C(C(C)C(OC(=O)CC)C(C)C(=O)O)O5)O4)O3)O2)C(C)CC1C (stereo not shown) [L. C10, laidlomycin decanoate] |  |  |  |  |  |  |  |  |  |  |  |  |  |  | 45.5 | 47.1 | 46.7 | 46.6 | 48.1 | 39.9 | % Propionic Acid [1, 16]: 43.6%; Lactic Acid Accumulation ([2]; 1.25 μg/ml): 0.84 µmol/mL; Lactic Acid Accumulation ([2]; 2.5 μg/ml): 1.20 µmol/mL; Lactic Acid Accumulation ([2]; 5 μg/ml): 0.94 µmol/mL; Lactic Acid Accumulation ([2]; 10 μg/ml): 0.94 µmol/mL; Lactic Acid Accumulation ([2]; 20 μg/ml): 0.96 µmol/mL; Lactic Acid Accumulation ([2]; .31 μg/ml): 36.86 µmol/mL; Lactic Acid Accumulation ([2]; .63 μg/ml): 30.78 µmol/mL
CCCCCCCCCCCC(=O)OCC1(O)OC(C2CC(C)C(C3(C)CCC(C4(C)CCC5(CC(O)C(C)C(C(C)C(OC(=O)CC)C(C)C(=O)O)O5)O4)O3)O2)C(C)CC1C (stereo not shown) [L. C12, laidlomycin dodecanoate] |  |  |  |  |  |  |  |  |  |  |  |  |  |  | 45.3 | 46.1 | 46.8 | 47.7 | 48.0 | 42.0 | % Propionic Acid [1, 16]: 43.8%; Lactic Acid Accumulation ([2]; 1.25 μg/ml): 11.19 µmol/mL; Lactic Acid Accumulation ([2]; 2.5 μg/ml): 1.04 µmol/mL; Lactic Acid Accumulation ([2]; 5 μg/ml): 3.32 µmol/mL; Lactic Acid Accumulation ([2]; 10 μg/ml): 2.16 µmol/mL; Lactic Acid Accumulation ([2]; 20 μg/ml): 1.65 µmol/mL; Lactic Acid Accumulation ([2]; .31 μg/ml): 34.90 µmol/mL; Lactic Acid Accumulation ([2]; .63 μg/ml): 38.01 µmol/mL
CCC(=O)OCC1(O)OC(C2CC(C)C(C3(C)CCC(C4(C)CCC5(CC(O)C(C)C(C(C)C(OC(=O)CC)C(C)C(=O)O)O5)O4)O3)O2)C(C)CC1C (stereo not shown) [L. C3, laidlomycin propionate] |  |  |  |  |  |  |  |  |  |  |  |  |  |  |  |  |  |  |  |  | % Propionic Acid [1, 17]: 37.8%; % Propionic Acid [1, 18]: 41.9%; % Propionic Acid [1, 19]: 44.4%; % Propionic Acid [1, 20]: 32.9%; activity at 1.25 µg/mL ([2]; Table 4, 1.25 μg/ml, read-out: Accumulation of Lactic Acid - % of Control): 14%; activity at 5 µg/mL ([2]; Table 4, 5 μg/ml, read-out: Accumulation of Lactic Acid - % of Control): 13%; activity at 20 µg/mL ([2]; Table 4, 20 μg/ml, read-out: Accumulation of Lactic Acid - % of Control): 14%; activity at 0.31 µg/mL ([2]; Table 4, .31 μg/ml, read-out: Accumulation of Lactic Acid - % of Control): 71%
CCCCCCCCCCCCCCCCCC(=O)OCC1(O)OC(C2CC(C)C(C3(C)CCC(C4(C)CCC5(CC(O)C(C)C(C(C)C(OC(=O)CC)C(C)C(=O)O)O5)O4)O3)O2)C(C)CC1C (stereo not shown) [L. C18, laidlomycin stearate] | 40.0 | 41.6 | 44.6 | 45.5 | 45.8 | 37.1 | 37.6 | 48.87 | 52.51 | 46.20 | 37.83 | 29.93 | 50.29 | 52.57 |  |  |  |  |  |  | 
